Patent US4605744A, “Imidazole derivatives” (Hoffmann-La Roche Inc., priority 1985, dated 1986)
In brackets after ≈: the same amount, converted by molar mass. Like-named read-outs stand apart in the source and are kept apart here.

Tests used:
Test in all cases: In vitro antibacterial activity (MIC)
Assay type in all cases: cell-based
[1] = tested on: C. diversus CDC 1663-72; conditions: C. diversus CDC 1663-72
Procedure, shortened: (§1)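 Read-out: visible growth, checked with a viewer after overnight incubation at 37° C. Bacteria, from a 10^-2 dilution of an overnight culture, were exposed to drug at 128 to 0.008 μg/ml in Mueller-Hinton broth.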

[2] = tested on: C. freundii 8ASM; conditions: C. freundii 8ASM
Procedure, shortened: as §1

[3] = tested on: C. freundii CDC6
Procedure, shortened: as §1

[4] = tested on: E. aerogenes 503-478; conditions: E. aerogenes 503-478
Procedure, shortened: as §1

[5] = tested on: E. aerogenes 83
Procedure, shortened: as §1

[6] = tested on: E. cloacae 214
Procedure, shortened: as §1

[7] = tested on: E. cloacae 5699; conditions: E. cloacae 5699
Procedure, shortened: as §1

[8] = tested on: E. cloacae 9295
Procedure, shortened: as §1

[9] = tested on: E. cloacae 9570A
Procedure, shortened: as §1

[10] = tested on: E. cloacae P99; conditions: E. cloacae P99
Procedure, shortened: as §1

[11] = tested on: E. coli 387-1; conditions: E. coli 387-1
Procedure, shortened: as §1

[12] = tested on: E. coli 48; conditions: E. coli 48
Procedure, shortened: as §1

[13] = tested on: E. coli 4; conditions: E. coli 4
Procedure, shortened: as §1

[14] = tested on: E. coli 503-455; conditions: E. coli 503-455
Procedure, shortened: as §1

[15] = tested on: E. coli 5152
Procedure, shortened: as §1

[16] = tested on: E. coli R-563
Procedure, shortened: as §1

[17] = tested on: K. pneumoniae 35
Procedure, shortened: as §1

[18] = tested on: K. pneumoniae 4964; conditions: K. pneumoniae 4964
Procedure, shortened: as §1

[19] = tested on: K. pneumoniae 503-964
Procedure, shortened: as §1

[20] = tested on: K. pneumoniae 5096
Procedure, shortened: as §1

[21] = tested on: P. aeruginosa 5700
Procedure, shortened: as §1

[22] = tested on: P. aeruginosa 6148B
Procedure, shortened: as §1

[23] = tested on: P. aeruginosa 8710
Procedure, shortened: as §1

[24] = tested on: P. aeruginosa 8780
Procedure, shortened: as §1

[25] = tested on: P. mirabilis 190
Procedure, shortened: as §1

[26] = tested on: P. mirabilis 620A; conditions: P. mirabilis 620A
Procedure, shortened: as §1

[27] = tested on: P. mirabilis 90
Procedure, shortened: as §1

[28] = tested on: P. vulgaris 100; conditions: P. vulgaris 100
Procedure, shortened: as §1

[29] = tested on: P. vulgaris 101; conditions: P. vulgaris 101
Procedure, shortened: as §1

[30] = tested on: S. aureus Giorgio
Procedure, shortened: as §1

[31] = tested on: S. faecalis C1
Procedure, shortened: as §1

[32] = tested on: S. marcescens S147
Procedure, shortened: as §1

[33] = tested on: S. marcescens S1
Procedure, shortened: as §1

[34] = tested on: S. marcescens S2
Procedure, shortened: as §1

[35] = tested on: S. marcescens S3
Procedure, shortened: as §1

[36] = tested on: S. marcescens S4
Procedure, shortened: as §1

[37] = tested on: S. marcescens S5
Procedure, shortened: as §1

[38] = tested on: S. marcescens S714; conditions: S. marcescens S714
Procedure, shortened: as §1

[39] = tested on: S. pneumoniae 6301
Procedure, shortened: as §1

[40] = tested on: S. pneumoniae 6302
Procedure, shortened: as §1

[41] = tested on: S. pneumoniae SC
Procedure, shortened: as §1

[42] = tested on: S. pyogenes 4
Procedure, shortened: as §1

[43] = tested on: S. pyogenes 503-782
Procedure, shortened: as §1

[44] = tested on: P. aeruginosa 503-820
Procedure, shortened: as §1

Question: What does the source list for `CC1(C)S[C@@H]2[C@H](N=CN3CCCC(CCn4ccnc4)CC3)C(=O)N2[C@H]1C(=O)O.Cl.O` (single isomer, unassigned) [D]?
Answer: MIC [1]: 0.125 µg/mL; MIC [2]: 0.062 µg/mL; MIC ([3]; C. freundii CDC6): 0.25 µg/mL; MIC [4]: 8 µg/mL; MIC ([5]; E. aerogenes 83): 16 µg/mL; MIC ([6]; E. cloacae 214): 0.25 µg/mL; MIC [7]: 0.5 µg/mL; MIC ([8]; E. cloacae 9295): 0.5 µg/mL; MIC [9]: 0.5 µg/mL; MIC [10]: 0.125 µg/mL; MIC [11]: 0.125 µg/mL; MIC [12]: 0.125 µg/mL; MIC [13]: 0.125 µg/mL; MIC [14]: 1 µg/mL; MIC ([15]; E. coli 5152): 16 µg/mL; MIC ([16]; E. coli R-563): 0.125 µg/mL; MIC ([17]; K. pneumoniae 35): 0.25 µg/mL; MIC [18]: 1 µg/mL; MIC ([19]; K. pneumoniae 503-964): 0.25 µg/mL; MIC ([20]; K. pneumoniae 5096): > 128 µg/mL; MIC ([21]; P. aeruginosa 5700): 0.5 µg/mL; MIC [22]: > 128 µg/mL; MIC ([23]; P. aeruginosa 8710): > 128 µg/mL; MIC ([24]; P. aeruginosa 8780): > 128 µg/mL; MIC ([25]; P. mirabilis 190): 0.25 µg/mL; MIC [26]: 64 µg/mL; MIC ([27]; P. mirabilis 90): 1 µg/mL; MIC [28]: 16 µg/mL; MIC [29]: 32 µg/mL; MIC ([30]; S. aureus Giorgio): 16 µg/mL; MIC ([31]; S. faecalis C1): > 128 µg/mL; MIC ([32]; S. marcescens S147): 0.125 µg/mL; MIC ([33]; S. marcescens S1): 0.5 µg/mL; MIC ([34]; S. marcescens S2): 0.5 µg/mL; MIC ([35]; S. marcescens S3): 0.5 µg/mL; MIC ([36]; S. marcescens S4): 1 µg/mL; MIC ([37]; S. marcescens S5): 2 µg/mL; MIC [38]: 1 µg/mL; MIC ([39]; S. pneumoniae 6301): 4 µg/mL; MIC ([40]; S. pneumoniae 6302): 8 µg/mL; MIC [41]: 4 µg/mL; MIC ([42]; S. pyogenes 4): 1 µg/mL; MIC ([43]; S. pyogenes 503-782): > 128 µg/mL

Question: What does the source list for `CC1(C)S[C@@H]2[C@H](/N=C/N3CCCCCC3)C(=O)N2[C@H]1C(=O)O` [Amdinocillin, amdinocillin, reference compound]?
Answer: MIC ([3]; Citrobacter freundii, CDC6): 0.125 µg/mL (≈ 0.384 µM); MIC ([5]; E. aerogenes 83): 4 µg/mL (≈ 12.3 µM); MIC ([5]; Klebsiella aerogenes, 83, E. aerogenes 83, read-out: MIC): 8 µg/mL (≈ 24.6 µM); MIC ([6]; Enterobacter cloacae, 214): 0.125 µg/mL (≈ 0.384 µM); MIC ([8]; Enterobacter cloacae, 9295): 0.125 µg/mL (≈ 0.384 µM); MIC ([9]; Enterobacter cloacae, 9570A): 0.125 µg/mL (≈ 0.384 µM); MIC ([9]; Enterobacter cloacae, read-out: MIC): 0.062 µg/mL (≈ 0.191 µM); MIC ([15]; E. coli 5152): 16 µg/mL (≈ 49.2 µM); MIC ([15]; Escherichia coli, 5152, E. coli 5152, read-out: MIC): 8 µg/mL (≈ 24.6 µM); MIC ([16]; Escherichia coli, R563): 0.125 µg/mL (≈ 0.384 µM); MIC ([17]; Klebsiella pneumoniae, 35, K. pneumoniae 35): 0.125 µg/mL (≈ 0.384 µM); MIC ([17]; Klebsiella pneumoniae, K. pneumoniae 35, read-out: MIC): 0.062 µg/mL (≈ 0.191 µM); MIC ([19]; Klebsiella pneumoniae, 503964, K. pneumoniae 503-964): 0.125 µg/mL (≈ 0.384 µM); MIC ([19]; Klebsiella pneumoniae, 503964, K. pneumoniae 503-964, read-out: MIC): 0.062 µg/mL (≈ 0.191 µM); MIC ([20]; Klebsiella pneumoniae, 5096, K. pneumoniae 5096): 128 µg/mL (≈ 393 µM); MIC ([20]; Klebsiella pneumoniae, K. pneumoniae 5096, read-out: MIC): 32 µg/mL (≈ 98.3 µM); MIC ([44]; P. aeruginosa 503-820): 128 µg/mL (≈ 393 µM); MIC ([44]; Pseudomonas aeruginosa, 503820, P. aeruginosa 503-820): > 128 µg/mL; MIC ([44]; Pseudomonas aeruginosa, 503820, P. aeruginosa 503-820, read-out: MIC): 64 µg/mL (≈ 197 µM); MIC ([21]; P. aeruginosa 5700): > 128 µg/mL; MIC ([21]; Pseudomonas aeruginosa, 5700, P. aeruginosa 5700): 128 µg/mL (≈ 393 µM); MIC [22]: 128 µg/mL (≈ 393 µM); MIC ([22]; Pseudomonas aeruginosa, 6148B): > 128 µg/mL; MIC ([22]; Pseudomonas aeruginosa, read-out: MIC): 64 µg/mL (≈ 197 µM); MIC ([23]; P. aeruginosa 8710): 128 µg/mL (≈ 393 µM); MIC ([23]; Pseudomonas aeruginosa, 8710, P. aeruginosa 8710): > 128 µg/mL; MIC ([24]; Pseudomonas aeruginosa, 8780): > 128 µg/mL; MIC ([25]; Proteus mirabilis, 190): 0.125 µg/mL (≈ 0.384 µM); MIC ([27]; P. mirabilis 90): 0.5 µg/mL (≈ 1.54 µM); MIC ([27]; Proteus mirabilis, 90, P. mirabilis 90, read-out: MIC): 0.25 µg/mL (≈ 0.768 µM); MIC ([30]; Staphylococcus aureus): 32 µg/mL (≈ 98.3 µM); MIC ([31]; Enterococcus faecalis, C1, S. faecalis C1): > 128 µg/mL; MIC ([31]; S. faecalis C1): 128 µg/mL (≈ 393 µM); MIC ([32]; Serratia marcescens, S147, S. marcescens S147): 0.125 µg/mL (≈ 0.384 µM); MIC ([32]; Serratia marcescens, S. marcescens S147, read-out: MIC): 0.062 µg/mL (≈ 0.191 µM); MIC ([33]; Serratia marcescens, S1): 0.125 µg/mL (≈ 0.384 µM); MIC ([34]; Serratia marcescens, S2, S. marcescens S2): 0.125 µg/mL (≈ 0.384 µM); MIC ([34]; Serratia marcescens, S. marcescens S2, read-out: MIC): 0.25 µg/mL (≈ 0.768 µM); MIC ([35]; Serratia marcescens, S3, S. marcescens S3): 0.125 µg/mL (≈ 0.384 µM); MIC ([35]; Serratia marcescens, S. marcescens S3, read-out: MIC): 0.062 µg/mL (≈ 0.191 µM); MIC ([36]; S. marcescens S4): 0.5 µg/mL (≈ 1.54 µM); MIC ([36]; Serratia marcescens, S4, S. marcescens S4, read-out: MIC): 1 µg/mL (≈ 3.07 µM); MIC ([37]; S. marcescens S5): 0.5 µg/mL (≈ 1.54 µM); MIC ([37]; Serratia marcescens, S5, S. marcescens S5, read-out: MIC): 1 µg/mL (≈ 3.07 µM); MIC ([39]; S. pneumoniae 6301): 1 µg/mL (≈ 3.07 µM); MIC ([39]; Streptococcus pneumoniae, 6301, S. pneumoniae 6301, read-out: MIC): 2 µg/mL (≈ 6.15 µM); MIC ([40]; S. pneumoniae 6302): 2 µg/mL (≈ 6.15 µM); MIC ([40]; Streptococcus pneumoniae, 6302, S. pneumoniae 6302, read-out: MIC): 4 µg/mL (≈ 12.3 µM); MIC [41]: 1 µg/mL (≈ 3.07 µM); MIC ([41]; Streptococcus pneumoniae, read-out: MIC): 2 µg/mL (≈ 6.15 µM); MIC ([42]; S. pyogenes 4): 2 µg/mL (≈ 6.15 µM); MIC ([42]; Streptococcus pyogenes, 4, S. pyogenes 4, read-out: MIC): 1 µg/mL (≈ 3.07 µM); MIC ([43]; Streptococcus pyogenes, 503782, S. pyogenes 503-782): > 128 µg/mL; MIC ([43]; Streptococcus pyogenes, 503782, S. pyogenes 503-782, read-out: MIC): 1 µg/mL (≈ 3.07 µM)
